What was measured:
[1] = system: Aurora kinase in Mino, Ramos and SU-DHL6; experiment: Aurora kinase inhibition in B-cell lines (Western blot); assay type: cell-based; details: FIGS. 13A-13C
Experimental: Inhibition of Aurora kinase activity was measured by western blotting for phosphorylation levels of Aurora kinases or and down-stream targets and by cell cycle and DNA content analysis. Whole cell extracts from Compound 7 treated cells were resolved by gel electrophoresis and transferred to nitrocellulose membranes and inhibition of Aurora kinase A/B and H3S10 phosphorylation was detected with specific antibodies. DNA synthesis and cell cycle phase was assessed by staining compound 7 of vehicle treated cells with 5-ethynyl-2′deoxyuridine (Edu) Alexa Fluor 488 and PI.

BTK WT = BTK WT (Homo sapiens, UniProt Q06187); experiment: Comparative potency against BTK (Table 8); assay type: biochemical; details: Table 8, wild-type BTK
FLT3(ITD) = FLT3(ITD) (Homo sapiens, UniProt P36888); experiment: Inhibition of FLT3 mutants, kinase IC50; assay type: biochemical; parameters: IC50; other: FLT3(ITD)
Experimental: RBC HotSpot Kinase Assay Protocol:
Reagents used: Base Reaction buffer; 20 mM Hepes (pH 7.5), 10 mM MgCl2, 1 mM EGTA, 0.02% Brij35, 0.02 mg/ml BSA, 0.1 mM Na3VO4, 2 mM DTT, 1% DMSO. Required cofactors are added individually to each kinase reaction.
Compound 7 was dissolved in 100% DMSO to a specified concentration. The serial dilution was conducted by epMotion 5070 in DMSO. The substrate was freshly prepared in Reaction Buffer and any required cofactors to the substrate solution were added. The kinase was added to the solution and gently mixed. Compound 7 was added in 100% DMSO into the kinase reaction mixture by Acoustic technology (Echo550; nanoliter range), and incubated for 20 min at room temperature. ^33P-ATP (Specific activity 10 μCi/μl) was added into the reaction mixture to initiate the reaction, which was incubated for 2 hours, whereupon kinase activity was detected by the filter-binding method.

[2] = system: MOLM14 (FLT3-ITD, t(9:11)); experiment: Antiproliferative activity (Table 6); assay type: cell-based; details: Homo sapiens, MOLM-14, 72 h
[3] = system: MV4-11 (FLT3-ITD, t(4:11)); experiment: Antiproliferative activity (Table 6); assay type: cell-based; details: Homo sapiens, MV4-11, 72 h
FLT3(N841I) = biological target: T1, FLT3(N841I) (Homo sapiens, UniProt P36888, N841I); experiment: Binding constant (Kd), competition binding with qPCR readout
T1 construct: made in house; host or cells: E. coli BL21-derived host (T7 phage) or HEK-293

BTK WT, sequence (Q06187 whole entry): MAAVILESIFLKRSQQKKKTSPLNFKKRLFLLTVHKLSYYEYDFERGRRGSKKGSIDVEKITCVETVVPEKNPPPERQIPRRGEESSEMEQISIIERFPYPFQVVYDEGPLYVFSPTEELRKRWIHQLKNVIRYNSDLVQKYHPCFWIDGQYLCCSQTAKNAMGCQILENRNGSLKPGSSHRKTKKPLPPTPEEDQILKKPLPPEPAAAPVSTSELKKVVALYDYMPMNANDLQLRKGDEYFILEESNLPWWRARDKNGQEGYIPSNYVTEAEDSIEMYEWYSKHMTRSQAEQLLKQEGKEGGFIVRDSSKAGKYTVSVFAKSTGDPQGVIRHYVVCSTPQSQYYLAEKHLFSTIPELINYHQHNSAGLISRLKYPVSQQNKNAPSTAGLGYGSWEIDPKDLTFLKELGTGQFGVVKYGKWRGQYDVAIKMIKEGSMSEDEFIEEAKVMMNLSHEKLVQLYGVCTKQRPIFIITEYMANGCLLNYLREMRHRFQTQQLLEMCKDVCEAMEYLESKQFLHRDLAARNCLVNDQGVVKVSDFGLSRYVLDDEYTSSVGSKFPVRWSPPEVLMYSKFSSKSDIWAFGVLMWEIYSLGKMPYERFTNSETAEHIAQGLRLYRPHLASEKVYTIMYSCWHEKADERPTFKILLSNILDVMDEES

Cc1cnc(-c2ccc(-c3ccc(NC(=O)Nc4c(F)cc(F)cc4F)cc3F)c3c2C(=O)NC3)[nH]1 [Compound 7, 1-{3-fluoro-4-[7-(5-methyl-1H-imidazol-2-yl)-1-oxo-2,3-dihydro-1H-isoindol-4-yl]-phenyl}-3-(2,4,6-trifluorophenyl)urea]
Aurora kinase inhibition (phosphorylation patterns) [1]: effective as an Aurora Kinase inhibitor
IC50 (BTK WT): 5 nM
IC50 (FLT3(ITD)): 0.817 nM
IC50 [2]: 0.92 nM
IC50 [3]: 0.17 nM
Kd (FLT3(N841I)): 0.76 nM

Reference: patent publication US20180344702A1, “METHODS FOR TREATING PATIENTS WITH HEMATOLOGIC MALIGNANCIES” (Aptose Biosciences, Inc., priority 2017, published 2018)
